Assay results reported in patent US20210290575A1, “METHODS AND COMPOSITIONS FOR IDENTIFICATION AND MODULATION OF MICROBIOME BIOCHEMICAL PATHWAYS TO ALTER PHENOTYPE” (Cybele Microbiome, Inc., priority 2017, published 2021).

Test system: Rhipicephalus microplus
Assay: Tick repellency of compounds produced on tick-resistant versus tick-susceptible cattle breeds
Conditions: compound produced on host; ticks on cattle (Nelore vs Holstein)
Description: The tick Rhipicephalus microplus specializes on cattle and other large bovids. However, success of its blood-feeding depends on the breed of the bovine host. In an indicine and a taurine breed of cattle that present contrasting phenotypes of infestation, Nelore and Holstein, respectively, resistant and susceptible to tick infestations as ascertained by the number of ticks and the reproductive success of female ticks completing their life-cycles on these two types of host.
At the same time, different levels of host immunity may affect the composition of tick saliva, contributing to these outcomes.

CC(=O)CCC=C(C)C [6-methyl-5-hepten-2-one]
repellency (result in words): repellent
